The values below come from patent publication US9045463B2, “Phenyl ethynyl derivatives as hepatitis C virus inhibitors” (Janssen R&D Ireland, priority 2009, dated 2015).

This experiment deals with HCV replicon (wild type NS3-NS5B regions of HCV type 1b) in Huh-7 luc/neo cells. In words: HCV replicon assay (Huh-Luc cells, luciferase read-out). It counts as cell-based. To be noted: Hepatitis C virus, Huh-7, 72 h, three days incubation, luciferase activity. From the text: The in vitro antiviral activity against HCV of the compounds of formula I can be tested in a cellular HCV replicon system based on Lohmann et al. (1999) Science 285:110-113, with the further modifications described by Krieger et al. (2001) Journal of Virology 75: 4614-4624 (incorporated herein by reference), which is further exemplified in the examples section. This model, while not a complete infection model for HCV, is widely accepted as the most robust and efficient model of autonomous HCV RNA replication currently available. It will be appreciated that it is important to distinguish between compounds that specifically interfere with HCV functions from those that exert cytotoxic or cytostatic effects in the HCV replicon model, and as a consequence cause a decrease in HCV RNA or linked reporter enzyme concentration. Assays are known in the field for the evaluation of cellular cytotoxicity based for example on the activity of mitochondrial enzymes using fluorogenic redox dyes such as resazurin. Furthermore, cellular counter screens exist for the evaluation of non-selective inhibition of linked reporter gene activity, such as firefly luciferase. Appropriate cell types can be equipped by stable transfection with a luciferase reporter gene whose expression is dependent on a constitutively active gene promoter, and such cells can be used as a counter-screen to eliminate non-selective inhibitors.
The compounds of formula (I) were examined for inhibitory activity in the HCV replicon. This cellular assay is based on a bicistronic expression construct, as described by Lohmann et al. (1999) Science vol. 285 pp. 110-113 with modifications described by Krieger et al. (2001) Journal of Virology 75: 4614-4624, in a multi-target screening strategy.
In essence, the method was as follows:
The assay utilized the stably transfected cell line Huh-7 luc/neo (hereafter referred to as Huh-Luc). This cell line harbors an RNA encoding a bicistronic expression construct comprising the wild type NS3-NS5B regions of HCV type 1b translated from an Internal Ribosome Entry Site (IRES) from encephalomyocarditis virus (EMCV), preceded by a reporter portion (FfL-luciferase), and a selectable marker portion (neo^R, neomycine phosphotransferase). The construct is flanked by 5′ and 3′ NTRs (non-translated regions) from HCV type 1b. Continued culture of the replicon cells in the presence of G418 (neo^R) is dependent on the replication of the HCV RNA. The stably transfected replicon cells that express HCV RNA, which replicates autonomously and to high levels, encoding inter alia luciferase, were used for screening the antiviral compounds.
The replicon cells were plated in 384 well plates in the presence of the test and control compounds which were added in various concentrations. Following an incubation of three days, HCV replication was measured by assaying luciferase activity (using standard luciferase assay substrates and reagents and a Perkin Elmer ViewLux™ ultraHTS microplate imager). Replicon cells in the control cultures have high luciferase expression in the absence of any inhibitor. The inhibitory activity of the compound on luciferase activity was monitored on the Huh-Luc cells, enabling a dose-response curve for each test compound. EC50 values were then calculated, which represent the amount of compound required to decrease the level of detected luciferase activity by 50%, or more specifically, to reduce the ability of the genetically linked HCV replicon RNA to replicate.

Usually EC50 stands for the concentration at which the effect is half-maximal.

In the case of `O=C(Cc1cccnc1)N1CCC[C@H]1c1ncc(C#Cc2ccc(-c3cnc([C@@H]4CCCN4C(=O)Cc4cccnc4)[nH]3)cc2)[nH]1` [Compound 2], the EC50 was 1.5 nM.

With `O=C([C@@H](c1ccccc1)N1CCCCC1)N1CCC[C@H]1c1ncc(C#Cc2ccc(-c3cnc([C@@H]4CCCN4C(=O)[C@@H](c4ccccc4)N4CCCCC4)[nH]3)cc2)[nH]1` [Compound 37], the EC50 came out at 0.03 nM.

For `CNC(=O)N[C@H](C(=O)N1CCC[C@H]1c1ncc(C#Cc2ccc(-c3cnc([C@@H]4CCCN4C(=O)[C@@H](NC(=O)NC)C(C)C)[nH]3)cc2)[nH]1)C(C)C` [Compound 36], the EC50 turned out to be 0.69 nM.

Regarding `COC(=O)N[C@H](C(=O)N1CCC[C@H]1c1ncc(C#Cc2ccc(-c3cnc([C@@H]4CCCN4C(=O)[C@@H](NC(=O)OC)C(C)C)[nH]3)cc2)[nH]1)C(C)C` [Compound 28], the EC50 was 0.036 nM.

For the compound `O=C(CC1CCCCC1)N1CCC[C@H]1c1ncc(C#Cc2ccc(-c3cnc([C@@H]4CCCN4C(=O)CC4CCCCC4)[nH]3)cc2)[nH]1` [Compound 4], the EC50 amounted to 130 nM.

On to `CC(=O)N[C@@H](C(=O)N1CCC[C@H]1c1ncc(C#Cc2ccc(-c3cnc([C@@H]4CCCN4C(=O)[C@H](NC(C)=O)c4ccccc4)[nH]3)cc2)[nH]1)c1ccccc1` [Compound 32], for which the concentration for a half-maximal effect (EC50) was less than 0.48 nM.

On to `CC(C)[C@@H](C(=O)N1CCC[C@H]1c1ncc(C#Cc2ccc(-c3cnc([C@@H]4CCCN4C(=O)[C@H](C(C)C)N(C)C)[nH]3)cc2)[nH]1)N(C)C` [Compound 21], for which the EC50 came to 36 nM.

As to `O=C(Nc1ccccc1)N1CCC[C@H]1c1ncc(C#Cc2ccc(-c3cnc([C@@H]4CCCN4C(=O)Nc4ccccc4)[nH]3)cc2)[nH]1` [Compound 3], the EC50 is 810 nM.
